Results on four compounds are retold here after patent publication US20020098477A1, “METHODS FOR SCREENING NUCLEAR TRANSCRIPTION FACTORS FOR THE ABILITY TO MODULATE AN ESTROGEN RESPONSE” (priority 1997, published 2002).

Assay [1] relates to PR-B. Put plainly: ColALuc reporter assay in HeLa cells transfected with ER, PR-B and c-Jun. The format is cell-based, human. On the procedure:
(§1) (FIG. 8A) HeLa cells were transfected with ColALuc (5 μg), ER (1 μg), PR-A or PR-B (1 μg), and c-Jun (3 μg). Data are from four separate transfections from three experiments for PR-A and from two transfections from two experiments for PR-B. Columns represent the average fold induction. (FIG. 8B) CV-1 cells were transfected with ColALuc (5 μg), ER (HE0, 0.5 μg), PR-A (1 μg) and c-Jun (3 μg). Data is from one experiment. Columns represent the average of two treatment points. Similar experiments have been repeated 3 times or less. (FIGS. 8A and 8B) Cells were treated with steroids immediately after transfection and harvested 40 hrs later. Error bars represent standard deviation.
(§2) Coll517mAP-1-CAT contains three point mutations in the consensus AP-1 response element (TGAGTCA mutated to GTACTCA). […]
(§3) Cells were transfected by electroporation as previously described (Webb et al. (1995) Mol. Endo., 9: 443-456). […] The efficiency of transfection was monitored by co-transfection with either a (hCG reporter driven by an actin promoter (Lopez et al. (1993) Mol. Cell. Biol., 13: 3042-3049) or by co-transfection with pJ3LACZ. CAT or luciferase activity was then corrected by dividing by hCG levels or β-galactosidase activity. Five micrograms of collagenase reporter plasmid, and 1 μg of GR expression vector were used in all experiments unless otherwise indicated. […]

Assay [2] deals with PR-A. Put plainly: ColALuc reporter assay in CV-1 cells transfected with ER, PR-A and c-Jun. In kind it is cell-based, monkey. As for the experimental part:
as §1, §2, §3
(In general: Reporter assays use an easily measured gene product as a stand-in for the process of interest.)

In assay [3] the test system is PR-A. To be noted: HeLa, 10^−7 M.
Description: (FIG. 8A) HeLa cells were transfected with ColALuc (5 μg), ER (1 μg), PR-A or PR-B (1 μg), and c-Jun (3 μg). Data are from four separate transfections from three experiments for PR-A and from two transfections from two experiments for PR-B. Columns represent the average fold induction. […] Similar experiments have been repeated 3 times or less. (FIGS. 8A and 8B) Cells were treated with steroids immediately after transfection and harvested 40 hrs later. Error bars represent standard deviation.
All cells were maintained in DME medium without phenol red. The medium was supplemented by serum (Sigma) which was tested for low estrogenic activity prior to use. […] In these experiments cells were treated with media containing charcoal-treated serum the night prior to transfection.
Assay [4] has as its system AP-1 response element. Put plainly: Coll73-LUC collagenase reporter gene assay in HeLa cells transfected with ER and GR. The format is cell-based, human. The note with it: for AP-1 activation at dose used: TNF-α 10 ng/ml, data not shown.
Source text: Coll73-LUC and Coll60-CAT have been previously described (Webb et al. (1995) Mol. Endo., 9: 443-456; Lopez et al. (1993) Mol. Cell Biol., 13: 3042-3049). Coll73-LUC consists of −73 to +63 base pairs of the collagenase promoter upstream of the Luciferase reporter gene. Coll517-CAT and Coll517mAP-1-CAT each contain −517 to +63 of the collagenase promoter (Webb et al. (1995) Mol. Endo., 9: 443-456).
Coll517mAP-1-CAT contains three point mutations in the consensus AP-1 response element (TGAGTCA mutated to GTACTCA). ColALuc contains the collagenase AP-1 response element upstream of the minimal drosophila alcohol dehydrogenase promoter (Starr et al., (1996) Genes & Dev., 10: 1271-1283). The ER expression vectors have been previously described: PHE0 (Green et al. (1986) Nature, 320: 134-139), PHEG0 (Tora et al. (1989) EMBO J. 8: 1981-1986), HE11 (Kumar et al. (1986) EMBO J., 5: 2231-2236), and HE15 (Kumar et al. (1987) Cell, 51: 941-951). PHE0 contains a point mutation (Gly400Val). PHEG0 is the wild type ER. PHE0 has reduced affinity for estrogens which allows for studies in cell culture without inadvertent activation. The protein coding regions of the ER plasmids were cloned into the multiple cloning site of the pSG5 expression vector. pRSVhGR (McEwan et al. (1993) Mol. Cell. Biol., 13: 399-407) consists of a cDNA encoding the human GR coding region inserted into an expression vector driven by the Rous sarcoma virus promoter. The PR-A (PhPR-60) and PR-B (hPR65) plasmids were derived from T47D cDNA and genomic DNA (Law et al (1987) Proc. Natl. Acad. Sci., USA, 84: 2877-2881; Wei et al. (1988) Mol. Endo., 2: 62-72) and cloned into an expression vector derived from pLEN (Kushner et al. (1990) Mol. Endocrinol. 4: 1465-1473). The human c-Jun (Turner et al. (1989) Science, 243: 1689-1694)) and rat c-Fos (Cohen et al. (1989) Genes & Dev., 3: 173-184)), have been previously described. The beta-actin-hCG construct has been previously described (Lopez et al. (1993) Mol. Cell. Biol., 13: 3042-3049). The pJ3-LacZ plasmid is pBR322-based and contains an SV40 promoter which activates LacZ.
All cells were maintained in DME medium without phenol red. […]
as §3

With `CCC(=O)[C@@]1(C)CC[C@H]2[C@@H]3CCC4=CC(=O)CCC4=C3CC[C@@]21C` [R5020], the “activity of AP-1 site, single steroid” value in assay [1] (10^−7 M) and in assay [3] was “inhibited the basal activity” throughout. In addition, the “progestin inhibition on treatment with both steroids” value in assay [1] (estradiol + progestin) is recorded as “loss of RU5020 inhibition”. In addition, the “progestin inhibition of estradiol with increased amounts of c-Jun” value in assay [2] (CV-1, PR-A, increasing c-Jun) is “maintained”. Besides, the “effect on the estradiol response” value in assay [2] (CV-1, transfected PR-A) is “inhibited the estradiol response”.

With `CCCCCCCCCCCCCC(=O)O[C@@H]1[C@@H](C)[C@@]2(O)[C@@H](C=C(CO)C[C@]3(O)C(=O)C(C)=C[C@@H]23)[C@@H]2C(C)(C)[C@]12OC(C)=O` [PMA], the “AP-1 activation at dose used” value in assay [4] (PMA 10^−7 M) is on record as “maximal AP-1 activation”. The “transcriptional activity in the absence of steroids” value in assay [4] (PMA 10^−7 M, ER 5 μg, GR 1 μg) is “ten fold stimulation”.

`CC/C(=C(\c1ccccc1)c1ccc(OCCN(C)C)cc1)c1ccccc1` [tamoxifen]: the “tamoxifen effect on transcription at Coll73” value in assay [4] (tamoxifen 5×10^−6 M, HE0, GR 1 μg) is on record as “activation”.

In the case of TNF-α, the “AP-1 activation at dose used” value in assay [4] (PMA 10^−7 M) was “maximal AP-1 activation”.
